In US9446039B2, “Aminoheteroaryl compounds as MTH1 inhibitors” (CEMM—FORSCHUNGSZENTRUM FÜR MOLEKULARE MEDIZIN GMBH, priority 2012, dated 2016):

Assays:
Assay type in all cases: binding
[1] = biological target: T1, SW480 colon carcinoma cells lysate proteins (Homo sapiens, UniProt P00558); details: PreyGene PGK1
T1 sequence (P00558 1-417): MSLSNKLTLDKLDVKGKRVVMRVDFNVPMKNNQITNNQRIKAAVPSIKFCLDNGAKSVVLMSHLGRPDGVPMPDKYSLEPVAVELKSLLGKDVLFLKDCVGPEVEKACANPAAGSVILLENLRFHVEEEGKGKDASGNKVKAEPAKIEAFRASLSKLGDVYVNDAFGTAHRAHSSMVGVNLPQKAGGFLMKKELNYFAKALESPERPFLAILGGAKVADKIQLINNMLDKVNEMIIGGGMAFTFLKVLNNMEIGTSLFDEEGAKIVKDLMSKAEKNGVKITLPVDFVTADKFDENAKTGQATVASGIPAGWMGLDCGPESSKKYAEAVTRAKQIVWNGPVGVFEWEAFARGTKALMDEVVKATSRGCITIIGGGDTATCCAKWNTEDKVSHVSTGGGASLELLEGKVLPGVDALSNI

[2] = biological target: T2, SW480 colon carcinoma cells lysate proteins (Homo sapiens, UniProt P04075); details: PreyGene ALDOA
T2 sequence (P04075 1-364): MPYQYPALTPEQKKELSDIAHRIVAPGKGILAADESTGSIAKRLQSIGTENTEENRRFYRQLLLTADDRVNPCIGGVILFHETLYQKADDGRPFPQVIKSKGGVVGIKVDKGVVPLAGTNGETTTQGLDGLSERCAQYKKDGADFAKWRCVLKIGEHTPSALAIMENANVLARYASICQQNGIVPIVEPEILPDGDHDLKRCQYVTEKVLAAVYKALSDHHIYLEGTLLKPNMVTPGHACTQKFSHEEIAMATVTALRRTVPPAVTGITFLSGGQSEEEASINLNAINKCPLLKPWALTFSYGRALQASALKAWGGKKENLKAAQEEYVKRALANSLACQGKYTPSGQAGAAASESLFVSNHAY

[3] = biological target: SW480 colon carcinoma cells lysate proteins (Homo sapiens, UniProt P07355); details: PreyGene ANXA2
Chain of SW480 colon carcinoma cells lysate proteins (Homo sapiens, UniProt P07355) (P07355 whole entry): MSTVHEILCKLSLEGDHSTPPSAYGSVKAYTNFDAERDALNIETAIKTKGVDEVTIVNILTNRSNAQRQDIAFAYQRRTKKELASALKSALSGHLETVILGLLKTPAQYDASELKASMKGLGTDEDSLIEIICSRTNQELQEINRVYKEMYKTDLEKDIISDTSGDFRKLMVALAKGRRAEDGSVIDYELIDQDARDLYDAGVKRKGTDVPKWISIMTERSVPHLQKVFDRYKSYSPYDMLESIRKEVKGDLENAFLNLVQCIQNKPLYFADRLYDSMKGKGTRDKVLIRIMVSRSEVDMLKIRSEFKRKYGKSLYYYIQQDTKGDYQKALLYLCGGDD

[4] = biological target: SW480 colon carcinoma cells lysate proteins (Homo sapiens, UniProt P37802); details: PreyGene TAGLN2
Chain of SW480 colon carcinoma cells lysate proteins (Homo sapiens, UniProt P37802) (P37802 whole entry): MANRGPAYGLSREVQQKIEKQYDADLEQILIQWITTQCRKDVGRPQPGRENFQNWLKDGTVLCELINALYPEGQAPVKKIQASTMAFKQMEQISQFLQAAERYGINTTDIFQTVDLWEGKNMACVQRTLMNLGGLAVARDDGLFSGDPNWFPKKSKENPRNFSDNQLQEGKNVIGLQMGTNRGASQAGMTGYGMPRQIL

[5] = biological target: SW480 colon carcinoma cells lysate proteins (Homo sapiens, UniProt P55263); details: PreyGene ADK
Chain of SW480 colon carcinoma cells lysate proteins (Homo sapiens, UniProt P55263) (P55263 whole entry): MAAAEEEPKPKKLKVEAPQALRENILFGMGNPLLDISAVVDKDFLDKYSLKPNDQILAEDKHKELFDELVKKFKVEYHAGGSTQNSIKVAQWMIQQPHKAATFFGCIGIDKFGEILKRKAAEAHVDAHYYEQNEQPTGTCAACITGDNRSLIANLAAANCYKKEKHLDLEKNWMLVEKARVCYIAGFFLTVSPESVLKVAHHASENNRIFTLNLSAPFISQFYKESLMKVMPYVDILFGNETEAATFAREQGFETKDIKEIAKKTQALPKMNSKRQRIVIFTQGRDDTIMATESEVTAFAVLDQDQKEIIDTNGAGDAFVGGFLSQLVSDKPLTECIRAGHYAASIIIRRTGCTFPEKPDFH

[6] = biological target: SW480 colon carcinoma cells lysate proteins (Homo sapiens, UniProt P68371); details: PreyGene TUBB4B; SW480 cells
Chain of SW480 colon carcinoma cells lysate proteins (Homo sapiens, UniProt P68371) (P68371 whole entry): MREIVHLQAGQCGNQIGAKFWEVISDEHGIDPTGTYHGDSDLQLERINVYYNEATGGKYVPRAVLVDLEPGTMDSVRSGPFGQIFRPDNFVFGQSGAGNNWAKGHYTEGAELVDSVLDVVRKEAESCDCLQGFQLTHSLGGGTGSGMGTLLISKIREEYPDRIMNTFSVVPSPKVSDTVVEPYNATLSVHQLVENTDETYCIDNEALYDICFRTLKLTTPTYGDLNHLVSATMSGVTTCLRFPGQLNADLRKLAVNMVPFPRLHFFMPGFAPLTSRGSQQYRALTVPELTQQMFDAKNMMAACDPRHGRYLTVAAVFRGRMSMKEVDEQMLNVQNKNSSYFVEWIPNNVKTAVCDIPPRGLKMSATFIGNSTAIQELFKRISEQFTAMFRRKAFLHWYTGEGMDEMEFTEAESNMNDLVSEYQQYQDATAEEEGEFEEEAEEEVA

[7] = biological target: SW480 colon carcinoma cells lysate proteins (Homo sapiens, UniProt Q14152); details: PreyGene EIF3A; SW480 cells
Chain of SW480 colon carcinoma cells lysate proteins (Homo sapiens, UniProt Q14152) (Q14152 whole entry): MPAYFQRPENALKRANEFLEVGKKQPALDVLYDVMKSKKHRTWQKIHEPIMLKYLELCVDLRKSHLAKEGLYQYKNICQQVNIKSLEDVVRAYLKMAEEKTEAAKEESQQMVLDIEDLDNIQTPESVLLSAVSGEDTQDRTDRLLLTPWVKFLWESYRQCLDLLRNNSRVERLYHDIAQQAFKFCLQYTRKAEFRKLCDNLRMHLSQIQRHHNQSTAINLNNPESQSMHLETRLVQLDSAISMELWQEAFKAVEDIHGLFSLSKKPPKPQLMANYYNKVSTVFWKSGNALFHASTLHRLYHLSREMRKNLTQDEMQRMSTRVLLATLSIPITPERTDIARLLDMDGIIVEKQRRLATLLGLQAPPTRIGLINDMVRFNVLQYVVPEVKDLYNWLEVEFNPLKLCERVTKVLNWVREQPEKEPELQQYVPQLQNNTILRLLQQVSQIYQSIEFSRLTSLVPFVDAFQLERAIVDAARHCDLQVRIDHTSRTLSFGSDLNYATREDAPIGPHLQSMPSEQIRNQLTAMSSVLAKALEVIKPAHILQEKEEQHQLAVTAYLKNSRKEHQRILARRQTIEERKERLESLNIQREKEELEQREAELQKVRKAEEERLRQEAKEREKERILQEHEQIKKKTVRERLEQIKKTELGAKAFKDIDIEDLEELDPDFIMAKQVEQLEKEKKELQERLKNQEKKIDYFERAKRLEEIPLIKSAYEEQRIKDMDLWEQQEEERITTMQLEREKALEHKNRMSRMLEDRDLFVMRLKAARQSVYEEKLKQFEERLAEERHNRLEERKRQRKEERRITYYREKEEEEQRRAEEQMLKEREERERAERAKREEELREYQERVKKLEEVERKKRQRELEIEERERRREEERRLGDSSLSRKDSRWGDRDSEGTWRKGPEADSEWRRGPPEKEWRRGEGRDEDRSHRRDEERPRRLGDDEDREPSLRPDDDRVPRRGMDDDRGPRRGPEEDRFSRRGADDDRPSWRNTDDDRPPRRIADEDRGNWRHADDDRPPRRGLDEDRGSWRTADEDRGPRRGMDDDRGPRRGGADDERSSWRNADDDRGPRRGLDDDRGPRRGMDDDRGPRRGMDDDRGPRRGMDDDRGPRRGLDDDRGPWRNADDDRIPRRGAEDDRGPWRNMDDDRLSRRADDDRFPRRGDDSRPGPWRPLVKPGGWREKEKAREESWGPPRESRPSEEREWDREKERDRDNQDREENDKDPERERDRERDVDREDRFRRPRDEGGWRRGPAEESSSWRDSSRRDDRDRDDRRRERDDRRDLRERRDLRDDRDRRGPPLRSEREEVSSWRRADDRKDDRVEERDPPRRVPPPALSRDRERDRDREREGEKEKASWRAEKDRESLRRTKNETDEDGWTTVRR

[8] = biological target: T3, SW480 colon carcinoma cells lysate proteins (Homo sapiens, UniProt Q15691); details: PreyGene MAPRE1
T3 sequence (Q15691 1-268): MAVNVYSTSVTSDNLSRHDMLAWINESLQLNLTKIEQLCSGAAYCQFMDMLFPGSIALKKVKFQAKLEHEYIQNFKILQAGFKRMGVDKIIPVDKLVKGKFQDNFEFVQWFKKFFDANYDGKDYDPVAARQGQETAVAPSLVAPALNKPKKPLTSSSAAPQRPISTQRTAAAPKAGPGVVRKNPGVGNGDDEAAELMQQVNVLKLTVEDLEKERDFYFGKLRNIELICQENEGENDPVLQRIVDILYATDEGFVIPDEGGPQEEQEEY

[9] = biological target: SW480 colon carcinoma cells lysate proteins (Homo sapiens, UniProt Q71U36); details: PreyGene TUBA1A; SW480 cells
Chain of SW480 colon carcinoma cells lysate proteins (Homo sapiens, UniProt Q71U36) (Q71U36 whole entry): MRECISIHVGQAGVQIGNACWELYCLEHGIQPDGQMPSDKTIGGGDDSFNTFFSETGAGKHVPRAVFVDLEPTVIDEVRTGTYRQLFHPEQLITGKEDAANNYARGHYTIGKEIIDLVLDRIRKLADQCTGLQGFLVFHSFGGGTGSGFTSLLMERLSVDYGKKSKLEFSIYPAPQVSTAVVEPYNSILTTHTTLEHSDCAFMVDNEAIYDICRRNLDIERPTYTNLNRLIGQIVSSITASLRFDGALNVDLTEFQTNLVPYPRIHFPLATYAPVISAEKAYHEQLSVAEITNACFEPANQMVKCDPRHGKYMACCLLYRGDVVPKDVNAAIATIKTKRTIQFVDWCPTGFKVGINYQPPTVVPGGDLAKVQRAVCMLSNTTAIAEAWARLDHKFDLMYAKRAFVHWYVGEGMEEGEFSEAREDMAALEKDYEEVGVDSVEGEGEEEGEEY

[10] = biological target: SW480 colon carcinoma cells lysate proteins (Homo sapiens, UniProt Q9Y265); details: PreyGene RUVBL1
Chain of SW480 colon carcinoma cells lysate proteins (Homo sapiens, UniProt Q9Y265) (Q9Y265 whole entry): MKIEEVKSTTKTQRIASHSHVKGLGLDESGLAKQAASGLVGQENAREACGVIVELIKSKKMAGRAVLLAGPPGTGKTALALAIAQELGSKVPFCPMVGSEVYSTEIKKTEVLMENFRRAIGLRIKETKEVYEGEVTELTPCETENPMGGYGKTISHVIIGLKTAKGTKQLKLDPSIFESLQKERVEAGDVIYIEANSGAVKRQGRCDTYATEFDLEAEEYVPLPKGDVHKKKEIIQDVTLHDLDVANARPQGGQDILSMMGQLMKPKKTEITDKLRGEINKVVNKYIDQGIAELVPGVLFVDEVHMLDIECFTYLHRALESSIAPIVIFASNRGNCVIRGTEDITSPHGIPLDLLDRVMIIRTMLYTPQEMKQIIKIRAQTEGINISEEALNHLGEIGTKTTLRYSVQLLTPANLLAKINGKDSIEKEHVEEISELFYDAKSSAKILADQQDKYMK

[11] = biological target: T4, SW480 colon carcinoma cells lysate proteins (Homo sapiens, UniProt Q9Y2B0); details: PreyGene CNPY2; SW480 cells
T4 sequence (Q9Y2B0 21-182): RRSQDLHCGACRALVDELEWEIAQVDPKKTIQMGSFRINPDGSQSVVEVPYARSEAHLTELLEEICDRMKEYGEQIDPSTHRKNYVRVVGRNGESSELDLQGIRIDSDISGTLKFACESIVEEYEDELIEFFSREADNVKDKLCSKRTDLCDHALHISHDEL

## C[C@H](Oc1cc(-c2cnn(C3CCNCC3)c2)cnc1N)c1c(Cl)ccc(F)c1Cl [(5)-crizotinib]
[1]
  AvgP: 0.2466
  SC.Exp. 1-1: 14
  SC.Exp. 1-2: 12
  SC.Exp. 2-1: 0
  SC.Exp. 2-2: 0
  Sum (SC.Exp.): 26
[2]
  AvgP: 0.2283
  SC.Exp. 1-1: 12
  SC.Exp. 1-2: 12
  SC.Exp. 2-1: 2
  SC.Exp. 2-2: 0
  Sum (SC.Exp.): 26
[3]
  AvgP: 0.41
  SC.Exp. 1-1: 13
  SC.Exp. 1-2: 13
  SC.Exp. 2-1: 0
  SC.Exp. 2-2: 0
  Sum (SC.Exp.): 26
[4]
  AvgP: 0.1795
  SC.Exp. 1-1: 6
  SC.Exp. 1-2: 5
  SC.Exp. 2-1: 0
  SC.Exp. 2-2: 0
  Sum (SC.Exp.): 11
[5]
  AvgP: 0.4613
  SC.Exp. 1-1: 4
  SC.Exp. 1-2: 3
  SC.Exp. 2-1: 0
  SC.Exp. 2-2: 0
  Sum (SC.Exp.): 7
[6]
  AvgP: 0
  SC.Exp. 1-1: 8
  SC.Exp. 1-2: 8
  SC.Exp. 2-1: 2
  SC.Exp. 2-2: 4
  SC.Exp. Sum: 22
[7]
  AvgP: 0
  SC.Exp. 1-1: 9
  SC.Exp. 1-2: 7
  SC.Exp. 2-1: 7
  SC.Exp. 2-2: 6
  SC.Exp. Sum: 29
[8]
  AvgP: 0.4084
  SC.Exp. 1-1: 2
  SC.Exp. 1-2: 3
  SC.Exp. 2-1: 0
  SC.Exp. 2-2: 0
  Sum (SC.Exp.): 5
[9]
  AvgP: 0
  SC.Exp. 1-1: 12
  SC.Exp. 1-2: 11
  SC.Exp. 2-1: 9
  SC.Exp. 2-2: 10
  SC.Exp. Sum: 42
[10]
  AvgP: 0.3864
  SC.Exp. 1-1: 2
  SC.Exp. 1-2: 3
  SC.Exp. 2-1: 0
  SC.Exp. 2-2: 0
  Sum (SC.Exp.): 5
[11]
  AvgP: 0
  SC.Exp. 1-1: 1
  SC.Exp. 1-2: 0
  SC.Exp. 2-1: 0
  SC.Exp. 2-2: 0
  SC.Exp. Sum: 1
